The source of these data is BindingDB's records for doi:10.1002/cbic.200500168 (University of Leipzig, 2005).

Each structure is given as a SMILES string.

The assay concerns the target T1, Kinesin-like protein KIF11 (Homo sapiens, UniProt P52732).
T1 sequence (P52732 whole entry): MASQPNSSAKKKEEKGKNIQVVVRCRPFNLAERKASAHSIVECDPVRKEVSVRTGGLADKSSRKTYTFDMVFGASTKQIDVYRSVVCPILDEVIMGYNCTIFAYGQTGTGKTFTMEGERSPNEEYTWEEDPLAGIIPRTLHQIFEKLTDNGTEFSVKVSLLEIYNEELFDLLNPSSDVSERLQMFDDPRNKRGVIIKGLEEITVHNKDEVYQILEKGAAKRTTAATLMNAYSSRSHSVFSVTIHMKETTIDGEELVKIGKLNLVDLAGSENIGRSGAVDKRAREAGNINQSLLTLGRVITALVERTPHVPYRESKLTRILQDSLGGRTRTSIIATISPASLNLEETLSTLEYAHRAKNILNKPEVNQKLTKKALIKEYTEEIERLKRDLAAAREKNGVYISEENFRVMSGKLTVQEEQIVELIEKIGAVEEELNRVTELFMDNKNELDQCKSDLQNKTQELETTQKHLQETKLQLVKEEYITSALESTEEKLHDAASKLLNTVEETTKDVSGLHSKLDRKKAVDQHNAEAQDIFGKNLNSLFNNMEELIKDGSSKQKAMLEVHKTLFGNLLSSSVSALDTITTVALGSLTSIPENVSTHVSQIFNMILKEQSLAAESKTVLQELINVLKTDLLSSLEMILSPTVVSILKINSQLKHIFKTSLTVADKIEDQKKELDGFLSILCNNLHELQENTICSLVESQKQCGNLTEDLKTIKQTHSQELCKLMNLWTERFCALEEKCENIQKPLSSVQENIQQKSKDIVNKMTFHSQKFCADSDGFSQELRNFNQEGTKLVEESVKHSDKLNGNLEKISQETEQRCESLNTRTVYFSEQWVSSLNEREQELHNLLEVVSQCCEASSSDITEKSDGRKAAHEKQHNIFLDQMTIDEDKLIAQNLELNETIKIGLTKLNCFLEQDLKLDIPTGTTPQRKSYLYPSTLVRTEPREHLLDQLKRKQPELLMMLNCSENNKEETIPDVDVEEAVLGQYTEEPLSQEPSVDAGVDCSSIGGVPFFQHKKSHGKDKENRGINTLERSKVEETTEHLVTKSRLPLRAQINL
The assay can be described thus: Malachite Green Assay. To be noted: pH 6.8; 25 °C. The procedure: The ATPase activity of the Eg5 motor domain was measured by using the malachite green assay.
Turning to `Oc1cccc(C2NC(=S)Nc3ccc(F)cc32)c1` (stereo not given) [VS-77], half-maximal inhibition (IC50) required 8.04 µM. This lies in the single-digit micromolar range.
The figure for `Oc1cccc(C2NC(=S)Nc3cccc(F)c32)c1` (stereo not given) [VS-83] is 1.17 µM; for `Oc1cccc(C2NC(=S)Nc3cc(F)ccc32)c1` (stereo not given) [VS-54] it is 1.81 µM; for `CCOC(=O)C1C(C)=NC(=S)N[C@H]1c1cccc(O)c1` (stereo not given in full) [Monastrol] it is 20.7 µM.
Under `Cc1ccc2c(c1)NC(=S)NC2c1cccc(O)c1` (stereo not given) [VS-91] stands 7.59 µM; under `Oc1cccc(C2NC(=S)Nc3cc(F)c(F)cc32)c1` (stereo not given) [VS-87], 2.74 µM.
The figure for `Cc1ccc2c(c1)C(c1cccc(O)c1)NC(=S)N2` (stereo not given) [VS-94] is 2.73 µM.
As to `Oc1cccc(C2NC(=S)Nc3ccccc32)c1` (stereo not given) [VS-12], the IC50 (in general, the midpoint of a concentration-inhibition curve) was 7.6 µM. Against the preceding molecule, the IC50 is about 2.8-fold higher.
Under `Oc1cccc(C2NC(=S)Nc3ccc(Cl)cc32)c1` (stereo not given) [VS-42] stands 5.77 µM.
As to `Oc1cccc(C2NC(=S)Nc3ccc(Br)cc32)c1` (stereo not given) [VS-17], the midpoint of inhibition, the IC50, lay at 5.75 µM.
